# From the NIST ThermoML archive (doi:10.1016/j.jct.2016.08.001)
# ± gives the expanded uncertainty stated by the source.
# Tests used:
# [1] = refractive index (Na D-line) (dimensionless); xn = mol fraction of the nth substance listed; conditions: 100 kPa, Liquid, Standard Abbe refractometry
# [2] = xn = mol fraction of the nth substance listed; conditions: 100 kPa, Liquid; for speed of sound: Frequency=3 MHz, Sing-around technique in a fixed-path interferometer; for mass density: Vibrating tube method
compound,measurement,setting,value
Nc1ccccc1 [aniline] + CCOC(=O)OCC,refractive index,"[1]; 298.15 K, x2 = 0",1.5826 ± 0.0016
same,refractive index,"[1]; 298.15 K, x2 = 0.073",1.5649 ± 0.0016
same,refractive index,"[1]; 298.15 K, x2 = 0.1652",1.5435 ± 0.0016
same,refractive index,"[1]; 298.15 K, x2 = 0.2537",1.5237 ± 0.0016
same,refractive index,"[1]; 298.15 K, x2 = 0.3387",1.5053 ± 0.0016
same,refractive index,"[1]; 298.15 K, x2 = 0.4432",1.4835 ± 0.0016
same,refractive index,"[1]; 298.15 K, x2 = 0.5468",1.4626 ± 0.0016
same,refractive index,"[1]; 298.15 K, x2 = 0.6546",1.4419 ± 0.0016
same,refractive index,"[1]; 298.15 K, x2 = 0.7559",1.4235 ± 0.0016
same,refractive index,"[1]; 298.15 K, x2 = 0.884",1.4016 ± 0.0016
same,refractive index,"[1]; 303.15 K, x2 = 0",1.5793 ± 0.0016
same,refractive index,"[1]; 303.15 K, x2 = 0.073",1.562 ± 0.0016
same,refractive index,"[1]; 303.15 K, x2 = 0.1652",1.5408 ± 0.0016
same,refractive index,"[1]; 303.15 K, x2 = 0.2537",1.5212 ± 0.0016
same,refractive index,"[1]; 303.15 K, x2 = 0.3387",1.5029 ± 0.0016
same,refractive index,"[1]; 303.15 K, x2 = 0.4432",1.4813 ± 0.0016
same,refractive index,"[1]; 303.15 K, x2 = 0.5468",1.4606 ± 0.0016
same,refractive index,"[1]; 303.15 K, x2 = 0.6546",1.4401 ± 0.0016
same,refractive index,"[1]; 303.15 K, x2 = 0.7559",1.4216 ± 0.0016
same,refractive index,"[1]; 303.15 K, x2 = 0.884",1.3995 ± 0.0016
same,refractive index,"[1]; 308.15 K, x2 = 0",1.576 ± 0.0016
same,refractive index,"[1]; 308.15 K, x2 = 0.073",1.559 ± 0.0016
same,refractive index,"[1]; 308.15 K, x2 = 0.1652",1.538 ± 0.0016
same,refractive index,"[1]; 308.15 K, x2 = 0.2537",1.5187 ± 0.0016
same,refractive index,"[1]; 308.15 K, x2 = 0.3387",1.5006 ± 0.0016
same,refractive index,"[1]; 308.15 K, x2 = 0.4432",1.4791 ± 0.0016
same,refractive index,"[1]; 308.15 K, x2 = 0.5468",1.4586 ± 0.0016
same,refractive index,"[1]; 308.15 K, x2 = 0.6546",1.4381 ± 0.0016
same,refractive index,"[1]; 308.15 K, x2 = 0.7559",1.4196 ± 0.0016
same,refractive index,"[1]; 308.15 K, x2 = 0.884",1.3974 ± 0.0016
same,refractive index,"[1]; 313.15 K, x2 = 0",1.5727 ± 0.0016
same,refractive index,"[1]; 313.15 K, x2 = 0.073",1.556 ± 0.0016
same,refractive index,"[1]; 313.15 K, x2 = 0.1652",1.5354 ± 0.0016
same,refractive index,"[1]; 313.15 K, x2 = 0.2537",1.5162 ± 0.0016
same,refractive index,"[1]; 313.15 K, x2 = 0.3387",1.4983 ± 0.0016
same,refractive index,"[1]; 313.15 K, x2 = 0.4432",1.477 ± 0.0016
same,refractive index,"[1]; 313.15 K, x2 = 0.5468",1.4566 ± 0.0016
same,refractive index,"[1]; 313.15 K, x2 = 0.6546",1.4362 ± 0.0016
same,refractive index,"[1]; 313.15 K, x2 = 0.7559",1.4176 ± 0.0016
same,refractive index,"[1]; 313.15 K, x2 = 0.884",1.3954 ± 0.0016
same,refractive index,"[1]; 318.15 K, x2 = 0",1.5694 ± 0.0016
same,refractive index,"[1]; 318.15 K, x2 = 0.073",1.5531 ± 0.0016
same,refractive index,"[1]; 318.15 K, x2 = 0.1652",1.5327 ± 0.0016
same,refractive index,"[1]; 318.15 K, x2 = 0.2537",1.5137 ± 0.0016
same,refractive index,"[1]; 318.15 K, x2 = 0.3387",1.496 ± 0.0016
same,refractive index,"[1]; 318.15 K, x2 = 0.4432",1.4749 ± 0.0016
same,refractive index,"[1]; 318.15 K, x2 = 0.5468",1.4545 ± 0.0016
same,refractive index,"[1]; 318.15 K, x2 = 0.6546",1.4343 ± 0.0016
same,refractive index,"[1]; 318.15 K, x2 = 0.7559",1.4156 ± 0.0016
same,refractive index,"[1]; 318.15 K, x2 = 0.884",1.3933 ± 0.0016
same,refractive index,"[1]; 323.15 K, x2 = 0",1.5661 ± 0.0016
same,refractive index,"[1]; 323.15 K, x2 = 0.073",1.5501 ± 0.0016
same,refractive index,"[1]; 323.15 K, x2 = 0.1652",1.5302 ± 0.0016
same,refractive index,"[1]; 323.15 K, x2 = 0.2537",1.5113 ± 0.0016
same,refractive index,"[1]; 323.15 K, x2 = 0.3387",1.4937 ± 0.0016
same,refractive index,"[1]; 323.15 K, x2 = 0.4432",1.4728 ± 0.0016
same,refractive index,"[1]; 323.15 K, x2 = 0.5468",1.4525 ± 0.0016
same,refractive index,"[1]; 323.15 K, x2 = 0.6546",1.4323 ± 0.0016
same,refractive index,"[1]; 323.15 K, x2 = 0.7559",1.4138 ± 0.0016
same,refractive index,"[1]; 323.15 K, x2 = 0.884",1.3913 ± 0.0016
same,speed of sound,"[2]; 298.15 K, x2 = 0",1636.8 ± 1.5 m/s
same,speed of sound,"[2]; 298.15 K, x2 = 0.073",1594.4 ± 1.5 m/s
same,speed of sound,"[2]; 298.15 K, x2 = 0.1652",1543.3 ± 1.5 m/s
same,speed of sound,"[2]; 298.15 K, x2 = 0.2537",1497.7 ± 1.5 m/s
same,speed of sound,"[2]; 298.15 K, x2 = 0.3387",1455.9 ± 1.5 m/s
same,speed of sound,"[2]; 298.15 K, x2 = 0.4432",1407.9 ± 1.5 m/s
same,speed of sound,"[2]; 298.15 K, x2 = 0.5468",1361.3 ± 1.5 m/s
same,speed of sound,"[2]; 298.15 K, x2 = 0.6546",1316 ± 1.5 m/s
same,speed of sound,"[2]; 298.15 K, x2 = 0.7559",1274.2 ± 1.5 m/s
same,speed of sound,"[2]; 298.15 K, x2 = 0.884",1222.6 ± 1.5 m/s
same,mass density,"[2]; 298.15 K, x2 = 0",1017.1 ± 1 kg/m3
same,mass density,"[2]; 298.15 K, x2 = 0.073",1014.2 ± 1 kg/m3
same,mass density,"[2]; 298.15 K, x2 = 0.1652",1010.2 ± 1 kg/m3
same,mass density,"[2]; 298.15 K, x2 = 0.2537",1006.4 ± 1 kg/m3
same,mass density,"[2]; 298.15 K, x2 = 0.3387",1002.6 ± 1 kg/m3
same,mass density,"[2]; 298.15 K, x2 = 0.4432",998 ± 1 kg/m3
same,mass density,"[2]; 298.15 K, x2 = 0.5468",993 ± 1 kg/m3
same,mass density,"[2]; 298.15 K, x2 = 0.6546",987.7 ± 1 kg/m3
same,mass density,"[2]; 298.15 K, x2 = 0.7559",982.5 ± 1 kg/m3
same,mass density,"[2]; 298.15 K, x2 = 0.884",975.9 ± 1 kg/m3
same,speed of sound,"[2]; 303.15 K, x2 = 0",1617.5 ± 1.5 m/s
same,speed of sound,"[2]; 303.15 K, x2 = 0.073",1575.1 ± 1.5 m/s
same,speed of sound,"[2]; 303.15 K, x2 = 0.1652",1523.9 ± 1.5 m/s
same,speed of sound,"[2]; 303.15 K, x2 = 0.2537",1478.3 ± 1.5 m/s
same,speed of sound,"[2]; 303.15 K, x2 = 0.3387",1436.4 ± 1.5 m/s
same,speed of sound,"[2]; 303.15 K, x2 = 0.4432",1388.2 ± 1.5 m/s
same,speed of sound,"[2]; 303.15 K, x2 = 0.5468",1341.5 ± 1.5 m/s
same,speed of sound,"[2]; 303.15 K, x2 = 0.6546",1296 ± 1.5 m/s
same,speed of sound,"[2]; 303.15 K, x2 = 0.7559",1254.1 ± 1.5 m/s
same,speed of sound,"[2]; 303.15 K, x2 = 0.884",1202.3 ± 1.5 m/s
